Results published in patent US8143243B2, “Compounds for the treatment of hepatitis C” (Bristol-Myers Squibb Company, priority 2007, dated 2012).
Read-outs that look alike come from different tables or passages of the source.

Experiments:
HCV replicon cells = assay: HCV replicon FRET / luciferase assay; type: cell-based
Procedure, shortened: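 Readout was NS3 protease cleavage of an EDANS/DABCYL FRET peptide (20 μM final) in lysed HCV replicon cells, or Renilla luciferase in reporter replicons. Background came from wells with the highest level of control protease inhibitor. EC50 marked the concentration giving 50% signal reduction.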

HCV NS5B = molecular target: T1, HCV NS5B (Hepatitis C virus genotype 1b, UniProt Q9WMX2); assay: HCV NS5B RdRp enzyme assay (standard / modified); type: biochemical
T1 construct: The protein was expressed with an 18 amino acid C-terminal truncation to enhance the solubility; made in house; host or cells: E. coli BL21 (DE3)
Procedure, shortened: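 SPA detection of 3H-UTP (0.29 μM) incorporation by C-terminally truncated (18 aa) genotype 1b NS5B from E. coli, on polyA/biotin-oligo-dT12 at 30° C, pH 7.5 Hepes, 2% DMSO. Modified format: 14 nM enzyme, 0.2 nM template, 20 nM primer prebound to beads, 4 h; standard: 28 nM, 6 nM, 180 nM free primer, 60 min. Seven-point IC50 fit.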

[1] = Hepatitis C virus, HCV replicon cells, FRET or luciferase readout, read-out: EC50
[2] = HCV RdRp genotype 1b enzyme, read-out: IC50

T1 sequence (Q9WMX2 2420-2992): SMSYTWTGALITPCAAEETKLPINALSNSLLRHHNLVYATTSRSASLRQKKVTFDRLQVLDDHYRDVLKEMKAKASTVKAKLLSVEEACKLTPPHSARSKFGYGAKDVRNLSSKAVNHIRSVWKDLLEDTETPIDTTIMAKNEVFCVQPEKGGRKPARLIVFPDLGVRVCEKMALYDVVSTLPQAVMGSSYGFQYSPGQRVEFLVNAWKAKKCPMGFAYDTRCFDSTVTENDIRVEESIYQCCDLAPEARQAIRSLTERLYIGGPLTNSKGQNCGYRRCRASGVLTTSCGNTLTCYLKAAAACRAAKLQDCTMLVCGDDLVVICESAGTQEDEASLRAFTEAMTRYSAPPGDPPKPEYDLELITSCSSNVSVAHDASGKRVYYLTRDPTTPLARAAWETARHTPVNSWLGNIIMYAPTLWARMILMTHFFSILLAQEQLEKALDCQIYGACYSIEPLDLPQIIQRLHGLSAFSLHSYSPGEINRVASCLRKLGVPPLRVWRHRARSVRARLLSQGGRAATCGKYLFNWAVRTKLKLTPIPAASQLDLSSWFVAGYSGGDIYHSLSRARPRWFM

Structure (SMILES): CCN1C[C@H]2C[C@@H]1CN2C(=O)c1cnn(C(C)C)c1C1=Cc2cc(OC)ccc2-c2c(C3CCCCC3)c3ccc(C(=O)NS(=O)(=O)CC(C)C)cc3n2C1
- EC50 (HCV replicon cells; [1]): 1 to 500 nM
- IC50 (HCV NS5B; [2]): 1 to 500 nM

Structure (SMILES): COc1ccc2c(c1)C=C(c1c(C(=O)N3C[C@@H](C)O[C@@H](C)C3)ccn1C(C)C)Cn1c-2c(C2CCCCC2)c2ccc(C(=O)NS(=O)(=O)C(C)C)cc21
- EC50 (HCV replicon cells; [1]): 1 to 500 nM
- IC50 (HCV NS5B; [2]): 1 to 500 nM

Structure (SMILES): CCC(C)S(=O)(=O)NC(=O)c1ccc2c(C3CCCCC3)c3n(c2c1)CC(c1c(C(=O)N2C4COCC2COC4)cnn1C)=Cc1cc(OC)ccc1-3 (stereo not shown)
- EC50 (HCV replicon cells; Hepatitis C virus): 1 to 500 nM
- IC50 (HCV NS5B): 1 to 500 nM

Structure (SMILES): COc1ccc2c(c1)C=C(c1ocnc1C(=O)N1CCOCC1)Cn1c-2c(C2CCCCC2)c2ccc(C(=O)NS(=O)(=O)N3CCOCC3)cc21
- EC50 (HCV replicon cells; [1]): 1 to 500 nM
- IC50 (HCV NS5B; [2]): 1 to 500 nM

Structure (SMILES): COc1ccc2c(c1)C=C(c1c(C(=O)N3C[C@@H](C)O[C@@H](C)C3)c(C(F)(F)F)nn1C)Cn1c-2c(C2CCCCC2)c2ccc(C(=O)NS(=O)(=O)C(C)C)cc21
- EC50 (HCV replicon cells; [1]): 1 to 500 nM
- IC50 (HCV NS5B; [2]): < 20 nM

Structure (SMILES): COc1ccc2c(c1)C=C(c1c(C(=O)N3CC4CCC(C3)N4C)cnn1C(C)C)Cn1c-2c(C2CCCCC2)c2ccc(C(=O)NS(=O)(=O)C(C)C)cc21
- EC50 (HCV replicon cells; Hepatitis C virus): 1 to 500 nM
- IC50 (HCV NS5B): 1 to 500 nM

Structure (SMILES): COc1ccc2c(c1)C=C(c1ocnc1C(=O)N1CCOCC1)Cn1c-2c(C2CCCCC2)c2ccc(C(=O)NS(=O)(=O)N(C)C)cc21
- EC50 (HCV replicon cells; [1]): 1 to 500 nM
- IC50 (HCV NS5B; [2]): 1 to 500 nM

Structure (SMILES): COc1ccc2c(c1)C=C(c1c(C(=O)N3CC4CCC(C3)O4)cnn1C)Cn1c-2c(C2CCCCC2)c2ccc(C(=O)NS(=O)(=O)C(C)C)cc21
- EC50 (HCV replicon cells; [1]): 1 to 500 nM
- IC50 (HCV NS5B; [2]): < 20 nM

Structure (SMILES): COc1ccc2c(c1)C=C(c1c(C(=O)N3C4CCC3CN(C)C4)cnn1C(C)C)Cn1c-2c(C2CCCCC2)c2ccc(C(=O)NS(=O)(=O)C(C)C)cc21
- EC50 (HCV replicon cells; Hepatitis C virus): 1 to 500 nM
- IC50 (HCV NS5B): 1 to 500 nM

Structure (SMILES): COc1ccc2c(c1)C=C(c1c(C(=O)N3CCOCC3)c(C)nn1C)Cn1c-2c(C2CCCCC2)c2ccc(C(=O)NS(=O)(=O)C(C)C)cc21
- EC50 (HCV replicon cells; [1]): 1 to 500 nM
- IC50 (HCV NS5B; [2]): 1 to 500 nM

Structure (SMILES): COc1ccc2c(c1)C=C(c1c(C(=O)N(CCN(C(C)C)C(C)C)C(C)C)cnn1C)Cn1c-2c(C2CCCCC2)c2ccc(C(=O)NS(=O)(=O)C(C)C)cc21
- EC50 (HCV replicon cells; [1]): 1 to 500 nM
- IC50 (HCV NS5B; [2]): 1 to 500 nM

Structure (SMILES): CCOC(=O)c1cnn(C)c1C1=Cc2cc(OC)ccc2-c2c(C3CCCCC3)c3ccc(C(=O)O)cc3n2C1
- EC50 (HCV replicon cells; [1]): 1 to 500 nM
- IC50 (HCV NS5B; [2]): 1 to 500 nM

Structure (SMILES): COCCN(C(=O)c1cnn(C)c1C1=Cc2cc(OC)ccc2-c2c(C3CCCCC3)c3ccc(C(=O)NS(=O)(=O)N4CCOCC4)cc3n2C1)C(C)C
- EC50 (HCV replicon cells; [1]): 1 to 500 nM
- IC50 (HCV NS5B; [2]): 1 to 500 nM

Structure (SMILES): COC[C@@H]1CN(C(=O)c2cnn(C)c2C2=Cc3cc(OC)ccc3-c3c(C4CCCCC4)c4ccc(C(=O)NS(=O)(=O)C5CCC5)cc4n3C2)CCO1
- EC50 (HCV replicon cells; [1]): 1 to 500 nM
- IC50 (HCV NS5B; [2]): 1 to 500 nM

Structure (SMILES): CCn1ncc(C(=O)N2CCOCC2)c1C1=Cc2cc(OC)ccc2-c2c(C3CCCCC3)c3ccc(C(=O)NS(=O)(=O)C(C)C)cc3n2C1
- EC50 (HCV replicon cells; [1]): 1 to 500 nM
- IC50 (HCV NS5B; [2]): 1 to 500 nM

Structure (SMILES): CCN(CC)C(=O)c1sccc1C1=Cc2cc(OC)ccc2-c2c(C3CCCCC3)c3ccc(C(=O)NS(=O)(=O)N(C)C)cc3n2C1
- EC50 (HCV replicon cells; [1]): 1 to 500 nM
- IC50 (HCV NS5B; [2]): 1 to 500 nM

Structure (SMILES): COC(=O)c1c(C)nn(C)c1C1=Cc2cc(OC)ccc2-c2c(C3CCCCC3)c3ccc(C(=O)O)cc3n2C1
- EC50 (HCV replicon cells; [1]): 1 to 500 nM
- IC50 (HCV NS5B; [2]): 1 to 500 nM

Structure (SMILES): COc1ccc2c(c1)C=C(c1c(C(=O)N3C4COCC3COC4)cnn1C)Cn1c-2c(C2CCCCC2)c2ccc(C(=O)NS(=O)(=O)C(C)C)cc21
- EC50 (HCV replicon cells; Hepatitis C virus): 1 to 500 nM
- IC50 (HCV NS5B): 1 to 500 nM

Structure (SMILES): CCC(C)S(=O)(=O)NC(=O)c1ccc2c(C3CCCCC3)c3n(c2c1)CC(c1c(C(=O)N2CCOC(COC)C2)cnn1C)=Cc1cc(OC)ccc1-3 (stereo not shown)
- EC50 (HCV replicon cells; [1]): 1 to 500 nM
- IC50 (HCV NS5B; [2]): 1 to 500 nM

Structure (SMILES): CCn1ncc(C(=O)N2C[C@@H]3C[C@H]2CO3)c1C1=Cc2cc(OC)ccc2-c2c(C3CCCCC3)c3ccc(C(=O)NS(=O)(=O)C(C)C)cc3n2C1
- EC50 (HCV replicon cells; [1]): 1 to 500 nM
- IC50 (HCV NS5B; [2]): 1 to 500 nM

Structure (SMILES): CCOC(=O)c1ccoc1C1=Cc2cc(OC)ccc2-c2c(C3CCCCC3)c3ccc(C(=O)NS(=O)(=O)C(C)C)cc3n2C1
- EC50 (HCV replicon cells; [1]): > 500 nM
- IC50 (HCV NS5B; [2]): 1 to 500 nM

Structure (SMILES): COc1ccc2c(c1)C=C(c1ocnc1C(=O)O)Cn1c-2c(C2CCCCC2)c2ccc(C(=O)OC(C)(C)C)cc21
- EC50 (HCV replicon cells; [1]): > 40 nM
- IC50 (HCV NS5B; [2]): > 40 nM

Structure (SMILES): CCn1nc(C)c(C(=O)N2C[C@@H](C)O[C@@H](C)C2)c1C1=Cc2cc(OC)ccc2-c2c(C3CCCCC3)c3ccc(C(=O)NS(=O)(=O)C(C)C)cc3n2C1 [drawing 627]
- EC50 (HCV replicon cells; HCV replicon cells, FRET or luciferase readout, read-out: EC50): 1 to 500 nM
- IC50 (HCV NS5B; [2]): 1 to 500 nM

Structure (SMILES): COc1ccc2c(c1)C=C(c1c(C(=O)N3C[C@@H](C)O[C@@H](C)C3)cnn1CC(F)(F)F)Cn1c-2c(C2CCCCC2)c2ccc(C(=O)NS(=O)(=O)C(C)C)cc21
- EC50 (HCV replicon cells; [1]): 1 to 500 nM
- IC50 (HCV NS5B; [2]): 1 to 500 nM

Structure (SMILES): COc1ccc2c(c1)C=C(c1c(C(=O)O)c(C)nn1C)Cn1c-2c(C2CCCCC2)c2ccc(C(=O)NS(=O)(=O)C(C)C)cc21
- EC50 (HCV replicon cells; [1]): > 500 nM
- IC50 (HCV NS5B; [2]): 1 to 500 nM

Structure (SMILES): COc1ccc2c(c1)C=C(c1occc1C(=O)N1C3CCC1CN(C)C3)Cn1c-2c(C2CCCCC2)c2ccc(C(=O)NS(=O)(=O)C(C)C)cc21
- EC50 (HCV replicon cells; Hepatitis C virus): 1 to 500 nM
- IC50 (HCV NS5B): 1 to 500 nM

Structure (SMILES): CCN1C[C@@H]2C[C@H]1CN2C(=O)c1cnn(CC(F)(F)F)c1C1=Cc2cc(OC)ccc2-c2c(C3CCCCC3)c3ccc(C(=O)NS(=O)(=O)C(C)C)cc3n2C1
- EC50 (HCV replicon cells; [1]): 1 to 500 nM
- IC50 (HCV NS5B; [2]): 1 to 500 nM

Structure (SMILES): CCC(C)S(=O)(=O)NC(=O)c1ccc2c(C3CCCCC3)c3n(c2c1)CC(c1c(C(=O)N2CCOCC2)cnn1C)=Cc1cc(OC)ccc1-3 (stereo not shown)
- EC50 (HCV replicon cells; [1]): 1 to 500 nM
- IC50 (HCV NS5B; [2]): 1 to 500 nM

Structure (SMILES): COc1ccc2c(c1)C=C(c1c(C(=O)N3C[C@@H](C)O[C@@H](C)C3)cnn1C)Cn1c-2c(C2CCCCC2)c2ccc(C(=O)NS(=O)(=O)N3CCOCC3)cc21
- EC50 (HCV replicon cells; [1]): 1 to 500 nM
- IC50 (HCV NS5B; [2]): 1 to 500 nM

Structure (SMILES): CCn1nc(C)c(C(=O)N2C[C@@H](C)O[C@@H](C)C2)c1C1=Cc2cc(OC)ccc2-c2c(C3CCCCC3)c3ccc(C(=O)NS(=O)(=O)C(C)C)cc3n2C1 [drawing 580]
- EC50 (HCV replicon cells; [1]): 1 to 500 nM
- IC50 (HCV NS5B; [2]): 1 to 500 nM

Structure (SMILES): CCN1C[C@@H]2C[C@H]1CN2C(=O)c1c(C)nn(C(C)C)c1C1=Cc2cc(OC)ccc2-c2c(C3CCCCC3)c3ccc(C(=O)NS(=O)(=O)C(C)C)cc3n2C1
- EC50 (HCV replicon cells; [1]): 1 to 500 nM
- IC50 (HCV NS5B; [2]): 1 to 500 nM

Structure (SMILES): CCn1ncc(C(=O)N2CCOCC2)c1C1=Cc2cc(OC)ccc2-c2c(C3CCCCC3)c3ccc(C(=O)NS(=O)(=O)N(C)C)cc3n2C1
- EC50 (HCV replicon cells; [1]): 1 to 500 nM
- IC50 (HCV NS5B; [2]): 1 to 500 nM

Structure (SMILES): CCn1nc(C)c(C(=O)N2C[C@@H]3C[C@H]2CO3)c1C1=Cc2cc(OC)ccc2-c2c(C3CCCCC3)c3ccc(C(=O)NS(=O)(=O)C(C)C)cc3n2C1
- EC50 (HCV replicon cells; [1]): 1 to 500 nM
- IC50 (HCV NS5B; [2]): 1 to 500 nM

Structure (SMILES): COc1ccc2c(c1)C=C(c1c(C(=O)N3C4CCC3CN(C)C4)cnn1C)Cn1c-2c(C2CCCCC2)c2ccc(C(=O)O)cc21
- EC50 (HCV replicon cells; Hepatitis C virus): 1 to 500 nM
- IC50 (HCV NS5B): > 500 nM

Structure (SMILES): COc1ccc2c(c1)C=C(c1ocnc1C(=O)N1CCOCC1)Cn1c-2c(C2CCCCC2)c2ccc(C(=O)O)cc21
- EC50 (HCV replicon cells; [1]): 1 to 500 nM
- IC50 (HCV NS5B; [2]): 1 to 500 nM

Structure (SMILES): COC[C@@H]1CN(C(=O)c2cnn(C(C)C)c2C2=Cc3cc(OC)ccc3-c3c(C4CCCCC4)c4ccc(C(=O)NS(=O)(=O)CC(C)C)cc4n3C2)CCO1
- EC50 (HCV replicon cells; [1]): 1 to 500 nM
- IC50 (HCV NS5B; [2]): 1 to 500 nM

Structure (SMILES): COc1ccc2c(c1)C=C(c1c(C(=O)N3C4CCCC3COC4)cnn1C)Cn1c-2c(C2CCCCC2)c2ccc(C(=O)NS(=O)(=O)C3CCC3)cc21
- EC50 (HCV replicon cells; Hepatitis C virus): 1 to 500 nM
- IC50 (HCV NS5B): 1 to 500 nM

Structure (SMILES): CCN1C[C@@H]2C[C@H]1CN2C(=O)c1c(C)nn(CC)c1C1=Cc2cc(OC)ccc2-c2c(C3CCCCC3)c3ccc(C(=O)NS(=O)(=O)C(C)C)cc3n2C1
- EC50 (HCV replicon cells; [1]): 1 to 500 nM
- IC50 (HCV NS5B; [2]): 1 to 500 nM
